Assay in all cases: inhibition of tumour cell growth, NCI panel, 48 h
The subject of assay [1] is MDA-MB-231 breast.
The subject of assay [2] is NCI-H522 lung.
Assay [3] relates to A498 renal.
The test system of assay [4] is U251 CNS.
The test system of assay [5] is LOX IMVI melanoma.
Assay [6] has as its system DU-145 prostate.
The test system of assay [7] is MOLT-4 leukemia.
Assay [8] relates to HS 578T breast.

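Method: 48-hour compound exposure of cells in 96-well plates, five concentrations, linear interpolation of endpoints. GI50 is the concentration that inhibits growth by half. At the TGI there is no net growth.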

Regarding `N#Cc1c(N)nc2c3c1NC(=O)C(C(N)=O)C3c1ccccc1O2` (stereo not drawn), the TGI was > 100 µM in assay [1]; 70.6 µM in assay [2]; > 100 µM in assay [3]; > 100 µM in assay [4]; > 100 µM in assay [5]; > 100 µM in assay [6]. The TGI in assay [7] was > 100 µM.
As for `CC(C)(C)OC(=O)c1ccc(NCC2=C(Br)C(=O)C=CC2=O)cc1`, the TGI in assay [1] was 47 µM; in assay [2], 13 µM; in assay [4] it was > 66.6 µM; in assay [5], 31.4 µM; in assay [6], > 94.3 µM; in assay [8] it was 67.3 µM. This compound returned a TGI in assay [7] of 45.7 µM.
For the compound `CC1=CCC[C@H]2[C@](C)(CC3=CC(=O)C(SCC(C)C)=CC3=O)[C@@H](C)CC[C@]12C`, the TGI in assay [1] is > 64 µM; in assay [3], 33.2 µM; in assay [4], 42.3 µM; in assay [5], 24.6 µM; in assay [6], 30.9 µM; in assay [7] it was 6.19 µM.
As to `CC(C)=CCC[C@@H](C)C1=C(O)C(Nc2ccccc2I)=C(C)C(=O)C1=O`, the TGI in assay [1] is > 75 µM; in assay [3], 31.5 µM; in assay [4], > 75 µM; in assay [5] it was > 75 µM; in assay [6], 69.2 µM; in assay [8], 47.4 µM. The TGI in assay [7] was > 19.5 µM.
With `O=c1[nH]c(=O)n(C2OC(CO)C(O)C2O)cc1OCCCc1ccccc1` (stereo not drawn), the TGI in assay [1], in assay [3], in assay [5], in assay [6], in assay [8] and in assay [7] was > 100 µM throughout.
For the compound `O=C(O)c1ccccc1C1c2ccccc2Oc2ccccc21`, the TGI in assay [1] is > 100 µM; in assay [2], > 100 µM; in assay [3], 82.1 µM; in assay [4] it was > 100 µM; in assay [5] it was > 100 µM; in assay [6], > 100 µM. The TGI in assay [7] is > 100 µM.
In the case of `CC(=O)C(C)(C)CCC(C)(C)C(C)=O`, the TGI in assay [1], in assay [2], in assay [4], in assay [5], in assay [6] and in assay [8] was > 100 µM in each case. Moreover, the TGI in assay [7] is > 100 µM.
For the compound `CCN(CC)C(=O)Cn1c2c(c3ccccc31)CCCC2`, the TGI in assay [3], in assay [5] and in assay [8] was > 100 µM each time.
In the case of `NC(=O)CN1C=CCC(C(N)=O)=C1`, the TGI in assay [2], in assay [3], in assay [4], in assay [5], in assay [6] and in assay [7] was > 100 µM throughout.
In the case of `O=C(N=Nc1ccccc1Cl)NNc1ccccc1Cl`, the TGI is > 100 µM in assay [1]; 52.7 µM in assay [2]; > 100 µM in assay [3]; > 100 µM in assay [4]; 44.8 µM in assay [5]; > 100 µM in assay [6]. The compound further had a TGI in assay [7] of 82.9 µM.
Regarding `O=[N+]([O-])/C(C(Cl)=C(Cl)Cl)=C(/Nc1cccc2cccnc12)n1nnc2ccccc21`, the TGI in assay [8] was 33.3 µM; in assay [7], > 100 µM.
Consider `S=C1SC(=Nc2ccccc2)C(=Nc2ccccc2)N1c1ccc2ccccc2c1`, for which the TGI in assay [1], in assay [2], in assay [3], in assay [4], in assay [6] and in assay [8] was > 100 µM throughout.
Regarding `C=C1CC(C)(c2cccc(Nc3nc4ccccc4c4occc34)c2)OC1=O` (stereo not drawn), the TGI in assay [1] is 23.1 µM; in assay [3], 32.1 µM; in assay [4] it was > 100 µM; in assay [6], 19.9 µM; in assay [8], 9.16 µM; in assay [7], > 100 µM.
Take `Cc1ncc(COP(=O)(O)O)c(/C=C2\SC(=S)NC2=O)c1O`: the TGI in assay [1], in assay [2], in assay [3], in assay [4], in assay [5] and in assay [6] was > 100 µM each time. Besides, the TGI in assay [7] was > 100 µM.
As to `CCSC1=CC2(O)N(CCc3ccc(OC)c(OC)c3)C(=O)CC2(C(=O)OC)CC1=O` (stereo not drawn), the TGI in assay [1] is 35.4 µM; in assay [3], > 100 µM; in assay [4], 51.7 µM; in assay [5], 37.3 µM; in assay [6], 32.6 µM; in assay [7] it was 90.8 µM.
Turning to `CCOC(=O)c1cc(Br)c(-c2onc(C)c2Br)[nH]1`, the TGI was 45.5 µM in assay [1]; > 100 µM in assay [3]; 42.6 µM in assay [4]; > 100 µM in assay [5]; > 100 µM in assay [6]; > 100 µM in assay [8]. The TGI in assay [7] was > 100 µM.
For `O=C1/C(=C/c2cccc3ccccc23)CCc2ccc([N+](=O)[O-])cc21`, the TGI was > 100 µM in assay [1]; > 100 µM in assay [3]; 39.4 µM in assay [4]; > 100 µM in assay [5]; > 100 µM in assay [6]; 47.7 µM in assay [8]. Moreover, the TGI in assay [7] is > 100 µM.
Consider `COC(=O)Cn1cnc2c(Cl)nc(Nc3ccccc3)nc21`, for which the TGI in assay [1] was > 100 µM; in assay [3], > 100 µM; in assay [4] it was > 100 µM; in assay [5], 41.4 µM; in assay [8], 54.1 µM; in assay [7], 84.7 µM.
In the case of `COc1cc(N(CCC#N)CCC#N)ccc1/C=N\NC(=O)c1ccc(C)cc1`, the TGI was 36.7 µM in assay [1]; > 100 µM in assay [2]; 30.8 µM in assay [4]; > 100 µM in assay [5]; > 100 µM in assay [6]; > 100 µM in assay [8]. For the same compound, the TGI in assay [7] was > 100 µM.
On to `COc1ccc(C(=O)/C=C/c2cc(-c3cc(OC)c(OC)c(OC)c3)n[nH]2)cc1`, for which the results for the GI50 in assay [2], in assay [8] and in assay [7] were 1.47 µM, 3.6 µM and 2.67 µM, respectively. In addition, the TGI in assay [2] is 3.2 µM; in assay [8], > 100 µM; in assay [7], 6.82 µM.

For the origin of these results see PubChem BioAssay (NCI).
